Experimental findings from US6706663B2, “Herbicidal 3-heterocyclic substituted benzisothiazole and benzisoxazole compounds” (Wyeth, priority 2000, dated 2004) are described below.

Assay in all cases: Postemergence herbicidal evaluation
What all share (details): postemergence

For assay [1], the system named is ECHCG (Echinochloa crus-galli). The class given is in vivo, (L.) Beau. The essentials: (§1)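 Seedlings grown about two weeks in flats, sprayed, then kept under standard greenhouse care. Rated visually 4–5 weeks after treatment on a 0–9 scale (stand, vigour, malformation, size, chlorosis, overall appearance) relative to untreated control; repeat tests averaged.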
The test system of assay [2] is IPOHE (Ipomoea hederacea). The class given is in vivo, (L.) Jacq. The essentials: as §1
The subject of assay [3] is ZEAMX (Corn, Field). The class given is in vivo, Zea mays, L. The essentials:
as §1

The test system of assay [4] is AMBEL (Ambrosia artemisifolia). Type of assay: in vivo, L. The essentials: as §1
Assay [5] has as its system CHEAL (Chenopodium album). The class given is in vivo, L. Put shortly: as §1
Assay [6] deals with ABUTH (Abutilon theophrasti). The class given is in vivo, Medic. Put shortly: as §1
The test system of assay [7] is GLXMA (Soybean). Type of assay: in vivo, Glycine max, (L.) Merr. The procedure:
In the tests, seedling plants are grown in jiffy flats for about two weeks. The test compounds are dispersed in 50/50 acetone/water mixtures containing 0.5% TWEEN® 20, a polyoxyethylene sorbitan monolaurate surfactant of Atlas Chemical Industries, in sufficient quantities to provide the equivalent of about 0.0040 kg to 1.000 kg per hectare of active compound when applied to the plants through a spray nozzle operating at 40 psi for a predetermined time. After spraying, the plants are placed on greenhouse benches and are cared for in accordance with conventional greenhouse procedures. From four to five weeks after treatment, the seedling plants are examined and rated according to the rating system set forth below. Where more than one test is involved for a given compound, the data are averaged.
Results of herbicide evaluation are expressed on a rating scale (0-9). The scale is based upon a visual observation of plant stand, vigor, malformation, size, chlorosis and overall plant appearance as compared with a control.

For assay [8], the system named is SETVI (Setaria viridis). The class given is in vivo, (L.) Beau. The essentials: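 First, seedlings are raised in flats for about two weeks. Next, compound dispersed in 50/50 acetone/water with 0.5% TWEEN 20 is sprayed at 40 psi to deliver about 0.0040–1.000 kg/ha. Plants are then maintained in the greenhouse and rated 0-9 after four to five weeks.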

With `Cn1c(C(F)(F)F)cc(=O)n(-c2ccc3snc(C4(O)N=C(C(C)(C)C)NC4=O)c3c2)c1=O` (stereo not shown) [Compound 95, 3-[3-(2-tert-butyl-4-hydroxy-5-oxo-2-imidazolin-4-yl)-1,2-benzisothiazol-5-yl]-1-methyl-6-(trifluoromethyl)uracil], the ECHCG herbicidal rating is 2.0 in assay [1] (rate 0.0320 kg/ha) and 3.0 in assay [1] (rate 0.0620 kg/ha). For the same compound, the results for the IPOHE herbicidal rating in assay [2] (rate 0.0320 kg/ha) and in assay [2] (rate 0.0620 kg/ha) were 8.0 and 9.0, respectively. In addition, the ZEAMX herbicidal rating in assay [3] (rate 0.0320 kg/ha) and in assay [3] (rate 0.0620 kg/ha) was 3.5 throughout. Further, the results for the AMBEL herbicidal rating in assay [4] (rate 0.0320 kg/ha) and in assay [4] (rate 0.0620 kg/ha) were 4.0 and 8.0, respectively. For the same compound, the figures for the CHEAL herbicidal rating in assay [5] (rate 0.0320 kg/ha) and in assay [5] (rate 0.0620 kg/ha) were 8.0 and 9.0, respectively. Further, the ABUTH herbicidal rating in assay [6] (rate 0.0320 kg/ha) and in assay [6] (rate 0.0620 kg/ha) was 9.0 in each case. The GLXMA herbicidal rating in assay [7] (rate 0.0320 kg/ha) and in assay [7] (rate 0.0620 kg/ha) was 8.0 throughout. Further, the figures for the SETVI herbicidal rating in assay [8] (rate 0.0320 kg/ha) and in assay [8] (rate 0.0620 kg/ha) were 4.0 and 7.0, respectively.
